# Assay results published in article PMC11957517, “Efficient production of hydroxysalidroside in Escherichia coli via enhanced glycosylation and semi-rational design of UGT85A1” (Synthetic and Systems Biotechnology, 2025).
# What was measured:
# UGT33 = target: T1, UGT33 (Rhodiola rosea, UniProt A0A2I6B3R9); experiment: whole-cell conversion in E. coli, HPLC; type: cell-based; conditions: intracellular UDPG, pgm and galU overexpressed, 48 h
# T1 construct: synthesized gene in pETDuet-1, E. coli BL21(DE3) whole cells with pCDFDuet-pgm-galU
# T1 sequence (A0A2I6B3R9 1-498): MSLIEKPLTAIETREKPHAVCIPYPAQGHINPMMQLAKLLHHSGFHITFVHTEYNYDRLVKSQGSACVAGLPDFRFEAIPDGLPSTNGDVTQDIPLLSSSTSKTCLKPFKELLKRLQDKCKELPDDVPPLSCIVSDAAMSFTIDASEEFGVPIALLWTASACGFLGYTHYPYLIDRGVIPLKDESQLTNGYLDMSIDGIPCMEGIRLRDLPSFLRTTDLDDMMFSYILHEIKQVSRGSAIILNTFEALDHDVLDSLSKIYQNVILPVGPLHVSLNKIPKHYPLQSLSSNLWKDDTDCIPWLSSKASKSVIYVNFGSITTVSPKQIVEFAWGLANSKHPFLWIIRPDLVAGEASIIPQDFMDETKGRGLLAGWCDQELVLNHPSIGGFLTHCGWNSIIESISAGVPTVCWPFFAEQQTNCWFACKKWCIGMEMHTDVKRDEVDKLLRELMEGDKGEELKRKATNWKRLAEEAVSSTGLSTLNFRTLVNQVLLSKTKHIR
# UGT13 = target: T2, UGT13 (Oryza sativa, UniProt Q6Z684); experiment: whole-cell conversion in E. coli, HPLC; type: cell-based; conditions: intracellular UDPG, pgm and galU overexpressed, 48 h
# T2 construct: synthesized gene in pETDuet-1, E. coli BL21(DE3) whole cells with pCDFDuet-pgm-galU
# T2 sequence (Q6Z684 1-485): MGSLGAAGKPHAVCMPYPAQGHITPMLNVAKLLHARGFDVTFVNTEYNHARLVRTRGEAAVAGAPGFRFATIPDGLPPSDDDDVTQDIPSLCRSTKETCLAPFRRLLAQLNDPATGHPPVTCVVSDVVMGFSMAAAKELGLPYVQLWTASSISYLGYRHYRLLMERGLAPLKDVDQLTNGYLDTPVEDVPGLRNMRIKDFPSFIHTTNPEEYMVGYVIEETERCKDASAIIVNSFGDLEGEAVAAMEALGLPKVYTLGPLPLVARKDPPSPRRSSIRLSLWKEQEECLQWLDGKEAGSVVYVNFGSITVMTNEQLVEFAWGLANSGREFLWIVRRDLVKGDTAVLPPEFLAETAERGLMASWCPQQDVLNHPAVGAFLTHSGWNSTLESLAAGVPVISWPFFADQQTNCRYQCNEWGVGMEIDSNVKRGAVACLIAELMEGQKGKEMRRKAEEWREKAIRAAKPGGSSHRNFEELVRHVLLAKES
structure (smiles),measurement,setting,value
OCCc1ccc(O)c(O)c1 [hydroxytyrosol],"whole-cell conversion in E. coli, HPLC",UGT33,all these enzymes could catalyze the synthesis of hydroxysalidroside
same,"whole-cell conversion in E. coli, HPLC",UGT13,all these enzymes could catalyze the synthesis of hydroxysalidroside
